This note sets out measurements from ChEMBL document CHEMBL1201862, “PubChem BioAssay data set” (2004).

Activity calls are given as the source filed them. Bounds are passed on as bounds.

Assay [1] can be described thus: microbe, parasite or virus in culture. The conditions noted are these: Mycobacterium tuberculosis. It counts as functional.
The nature of assay [2]: growth suppression of PTEN-null colon cells, dose response, cell-based, HCT116 PTEN knockout (AID 1047).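 Further: HCT116 colon tumor cells with PTEN knocked out; cells exposed to compound for 60 hours before readout; potency for loss of cell viability measured by luminescence.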 The class given is functional.
Assay [3] is described as follows: growth suppression of beta-catenin-knockout colon cells, dose response, cell-based, HCT116, human colon tumor (AID 1045).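 Further: HCT116 colon tumor cells with beta catenin knocked out; cells exposed to compound for 60 hours.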 The class given is functional.
Assay [4] in a line: Luminescence Cell-Based Dose Retest to Confirm Inhibitors of Cancer Stem Cells. [Related pubchem assays (depositor defined):AID2717, AID2721]. It counts as functional. The conditions noted are these: Homo sapiens.
Assay [5] concerns the target Neurotensin receptor type 1 (Homo sapiens, UniProt P30989). It counts as functional.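 Further: Image-based confirmatory dose-response assay measuring agonist activity at NTR1; NTR1-expressing U2OS osteosarcoma cells imaged for beta-arrestin GFP spot formation; agonist potency where compounds increase beta-arrestin recruitment.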
Assay [6] deals with INS1. The assay is described as follows: beta cell apoptosis inhibitors, cytokine rescue, dose response, luminescence, retest (AID 449756).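 Further: cell death triggered by IL-1 beta plus TNF-alpha plus IFN-gamma mixture; protective hits raise ATP signal compared with cytokine alone wells.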 The class given is functional, cell-based. The conditions noted are these: Rattus norvegicus.
In assay [7] the target is T1, Voltage-gated N-type calcium channel alpha-1B subunit/Amyloid beta A4 precursor protein-binding family A member 1 (Homo sapiens, UniProt Q00975+Q02410). It counts as protein assay.
T1 sequence (Q00975 whole entry): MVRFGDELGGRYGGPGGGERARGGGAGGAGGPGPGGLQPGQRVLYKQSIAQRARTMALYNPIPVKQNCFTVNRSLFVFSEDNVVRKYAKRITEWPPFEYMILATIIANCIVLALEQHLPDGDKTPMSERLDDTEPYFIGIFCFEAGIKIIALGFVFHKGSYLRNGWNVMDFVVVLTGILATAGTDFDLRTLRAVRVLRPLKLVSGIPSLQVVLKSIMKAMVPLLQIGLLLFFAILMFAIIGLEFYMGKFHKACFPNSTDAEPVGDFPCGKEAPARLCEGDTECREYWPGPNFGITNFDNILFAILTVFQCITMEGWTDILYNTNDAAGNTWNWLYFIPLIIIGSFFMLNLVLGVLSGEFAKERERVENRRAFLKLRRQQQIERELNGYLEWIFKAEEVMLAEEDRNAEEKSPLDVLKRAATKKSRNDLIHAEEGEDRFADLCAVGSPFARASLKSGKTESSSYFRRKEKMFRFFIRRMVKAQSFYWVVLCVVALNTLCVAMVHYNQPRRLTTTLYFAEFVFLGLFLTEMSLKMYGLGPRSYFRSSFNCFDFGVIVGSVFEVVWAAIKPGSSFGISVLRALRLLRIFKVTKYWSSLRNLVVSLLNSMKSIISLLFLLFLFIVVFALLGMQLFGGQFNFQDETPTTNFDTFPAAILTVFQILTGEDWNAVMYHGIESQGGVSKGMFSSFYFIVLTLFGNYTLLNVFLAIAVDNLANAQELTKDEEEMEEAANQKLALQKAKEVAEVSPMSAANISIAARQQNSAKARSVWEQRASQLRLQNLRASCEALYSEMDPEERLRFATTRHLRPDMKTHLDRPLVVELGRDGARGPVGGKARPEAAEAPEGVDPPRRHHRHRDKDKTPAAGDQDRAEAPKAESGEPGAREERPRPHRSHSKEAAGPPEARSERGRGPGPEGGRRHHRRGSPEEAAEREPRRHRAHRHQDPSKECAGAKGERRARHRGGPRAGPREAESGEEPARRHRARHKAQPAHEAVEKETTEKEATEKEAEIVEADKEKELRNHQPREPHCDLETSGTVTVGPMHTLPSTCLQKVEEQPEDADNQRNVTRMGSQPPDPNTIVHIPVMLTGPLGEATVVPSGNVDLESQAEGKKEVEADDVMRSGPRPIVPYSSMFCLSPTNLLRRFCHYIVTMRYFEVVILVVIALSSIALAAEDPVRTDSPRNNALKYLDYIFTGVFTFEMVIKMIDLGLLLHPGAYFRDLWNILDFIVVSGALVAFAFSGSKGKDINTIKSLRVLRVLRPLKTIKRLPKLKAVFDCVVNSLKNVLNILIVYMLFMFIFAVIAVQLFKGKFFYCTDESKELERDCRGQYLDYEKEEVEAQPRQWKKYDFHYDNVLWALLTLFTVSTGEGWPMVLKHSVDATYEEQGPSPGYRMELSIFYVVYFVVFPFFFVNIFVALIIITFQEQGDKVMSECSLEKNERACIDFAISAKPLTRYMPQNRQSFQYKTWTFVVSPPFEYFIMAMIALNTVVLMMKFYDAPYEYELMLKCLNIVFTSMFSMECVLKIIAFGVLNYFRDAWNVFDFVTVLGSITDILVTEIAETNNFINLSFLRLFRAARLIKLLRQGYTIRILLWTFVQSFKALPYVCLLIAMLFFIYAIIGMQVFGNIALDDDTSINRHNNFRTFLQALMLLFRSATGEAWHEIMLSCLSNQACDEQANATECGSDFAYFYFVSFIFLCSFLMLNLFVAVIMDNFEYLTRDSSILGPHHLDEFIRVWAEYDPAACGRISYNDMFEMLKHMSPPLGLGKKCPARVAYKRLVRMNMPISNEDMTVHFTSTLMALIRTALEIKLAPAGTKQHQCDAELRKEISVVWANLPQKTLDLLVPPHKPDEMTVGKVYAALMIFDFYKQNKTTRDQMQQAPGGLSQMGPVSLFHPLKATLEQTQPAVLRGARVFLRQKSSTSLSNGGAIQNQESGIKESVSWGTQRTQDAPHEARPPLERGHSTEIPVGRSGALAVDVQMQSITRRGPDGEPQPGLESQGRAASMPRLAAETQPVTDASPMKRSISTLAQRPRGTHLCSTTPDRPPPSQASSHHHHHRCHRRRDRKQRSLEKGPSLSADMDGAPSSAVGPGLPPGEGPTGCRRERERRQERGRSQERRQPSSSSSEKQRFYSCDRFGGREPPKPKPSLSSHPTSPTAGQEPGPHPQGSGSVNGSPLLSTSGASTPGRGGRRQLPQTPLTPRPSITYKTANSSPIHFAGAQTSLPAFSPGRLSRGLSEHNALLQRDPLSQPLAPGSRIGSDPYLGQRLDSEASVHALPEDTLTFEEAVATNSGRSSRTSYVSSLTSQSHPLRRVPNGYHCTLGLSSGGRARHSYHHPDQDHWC
T1 sequence (Q02410 whole entry): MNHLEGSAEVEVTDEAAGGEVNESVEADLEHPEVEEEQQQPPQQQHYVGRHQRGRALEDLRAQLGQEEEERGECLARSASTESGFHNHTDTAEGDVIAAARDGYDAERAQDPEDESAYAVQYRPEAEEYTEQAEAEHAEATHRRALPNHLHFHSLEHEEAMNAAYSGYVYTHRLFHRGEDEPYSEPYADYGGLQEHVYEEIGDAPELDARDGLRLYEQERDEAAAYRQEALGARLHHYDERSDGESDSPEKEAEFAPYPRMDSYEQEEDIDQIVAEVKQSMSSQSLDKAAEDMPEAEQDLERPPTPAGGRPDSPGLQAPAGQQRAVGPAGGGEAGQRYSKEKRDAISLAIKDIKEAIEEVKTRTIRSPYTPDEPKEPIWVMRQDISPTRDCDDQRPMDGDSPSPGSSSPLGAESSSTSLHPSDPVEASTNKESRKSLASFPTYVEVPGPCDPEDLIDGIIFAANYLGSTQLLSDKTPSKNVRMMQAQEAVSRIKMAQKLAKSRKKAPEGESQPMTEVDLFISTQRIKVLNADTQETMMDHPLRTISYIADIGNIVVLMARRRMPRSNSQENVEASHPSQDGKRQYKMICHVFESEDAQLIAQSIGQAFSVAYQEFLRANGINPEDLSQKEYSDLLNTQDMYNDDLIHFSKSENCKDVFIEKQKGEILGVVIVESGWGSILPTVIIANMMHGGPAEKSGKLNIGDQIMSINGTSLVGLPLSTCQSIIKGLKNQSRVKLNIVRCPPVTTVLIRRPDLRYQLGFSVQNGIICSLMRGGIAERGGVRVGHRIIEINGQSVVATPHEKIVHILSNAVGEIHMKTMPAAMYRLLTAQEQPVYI
Assay [8] addresses T1, Voltage-gated N-type calcium channel alpha-1B subunit/Amyloid beta A4 precursor protein-binding family A member 1. It counts as protein assay. This is another data set of the same source.
Assay [9] addresses T2, Coagulation factor XII (Homo sapiens, UniProt P00748).
T2 sequence (P00748 whole entry): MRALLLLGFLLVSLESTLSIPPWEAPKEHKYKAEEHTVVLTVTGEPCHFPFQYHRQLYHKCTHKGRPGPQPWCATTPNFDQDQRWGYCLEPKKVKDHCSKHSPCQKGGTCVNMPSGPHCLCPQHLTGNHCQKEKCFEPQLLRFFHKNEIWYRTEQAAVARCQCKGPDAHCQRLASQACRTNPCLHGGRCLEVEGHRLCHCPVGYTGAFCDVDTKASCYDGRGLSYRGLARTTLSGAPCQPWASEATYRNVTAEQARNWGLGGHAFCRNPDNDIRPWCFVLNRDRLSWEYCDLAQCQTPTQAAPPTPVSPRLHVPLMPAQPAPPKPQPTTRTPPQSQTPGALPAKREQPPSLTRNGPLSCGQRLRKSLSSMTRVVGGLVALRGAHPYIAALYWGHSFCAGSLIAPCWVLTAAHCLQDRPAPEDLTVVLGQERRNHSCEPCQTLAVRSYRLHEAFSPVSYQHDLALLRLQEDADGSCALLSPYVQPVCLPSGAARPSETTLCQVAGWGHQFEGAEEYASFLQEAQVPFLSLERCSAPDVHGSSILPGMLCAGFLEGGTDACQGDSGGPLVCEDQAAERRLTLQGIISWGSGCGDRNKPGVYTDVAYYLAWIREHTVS
It counts as functional.

For assay [10], the target named is Induced myeloid leukemia cell differentiation protein Mcl-1 (Homo sapiens, UniProt Q07820). The class given is functional.
Induced myeloid leukemia cell differentiation protein Mcl-1, sequence (Q07820 whole entry, the tested form may be a part): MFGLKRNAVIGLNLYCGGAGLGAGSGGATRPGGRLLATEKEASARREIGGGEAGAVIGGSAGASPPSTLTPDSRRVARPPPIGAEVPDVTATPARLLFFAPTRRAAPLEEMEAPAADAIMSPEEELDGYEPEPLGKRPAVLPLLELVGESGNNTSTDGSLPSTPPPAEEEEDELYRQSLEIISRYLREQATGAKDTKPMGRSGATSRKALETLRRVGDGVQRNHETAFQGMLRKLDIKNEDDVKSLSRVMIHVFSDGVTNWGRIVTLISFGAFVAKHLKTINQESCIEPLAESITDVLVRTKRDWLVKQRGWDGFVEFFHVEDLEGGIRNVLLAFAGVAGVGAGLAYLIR
The target of assay [11] is T3, Carboxy-terminal domain RNA polymerase II polypeptide A small phosphatase 1 (Homo sapiens, UniProt Q9GZU7).
T3 sequence (Q9GZU7 whole entry): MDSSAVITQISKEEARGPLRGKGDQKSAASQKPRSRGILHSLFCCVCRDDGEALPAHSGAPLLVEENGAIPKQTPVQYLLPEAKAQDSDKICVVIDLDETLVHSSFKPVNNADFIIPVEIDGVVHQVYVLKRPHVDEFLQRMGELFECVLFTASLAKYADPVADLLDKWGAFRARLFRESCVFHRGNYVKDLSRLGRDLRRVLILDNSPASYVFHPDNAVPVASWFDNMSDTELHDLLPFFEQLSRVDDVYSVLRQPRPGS
The assay is described as follows: inhibitors of CTDSP1, concentration-response testing, biochemical assay, absorbance-based, actives from ultra-high-throughput screening (AID 540297). The class given is functional.

Assay [12] addresses T4, ORF 73 (Human herpesvirus 8, UniProt O40947).
T4 sequence (O40947 whole entry): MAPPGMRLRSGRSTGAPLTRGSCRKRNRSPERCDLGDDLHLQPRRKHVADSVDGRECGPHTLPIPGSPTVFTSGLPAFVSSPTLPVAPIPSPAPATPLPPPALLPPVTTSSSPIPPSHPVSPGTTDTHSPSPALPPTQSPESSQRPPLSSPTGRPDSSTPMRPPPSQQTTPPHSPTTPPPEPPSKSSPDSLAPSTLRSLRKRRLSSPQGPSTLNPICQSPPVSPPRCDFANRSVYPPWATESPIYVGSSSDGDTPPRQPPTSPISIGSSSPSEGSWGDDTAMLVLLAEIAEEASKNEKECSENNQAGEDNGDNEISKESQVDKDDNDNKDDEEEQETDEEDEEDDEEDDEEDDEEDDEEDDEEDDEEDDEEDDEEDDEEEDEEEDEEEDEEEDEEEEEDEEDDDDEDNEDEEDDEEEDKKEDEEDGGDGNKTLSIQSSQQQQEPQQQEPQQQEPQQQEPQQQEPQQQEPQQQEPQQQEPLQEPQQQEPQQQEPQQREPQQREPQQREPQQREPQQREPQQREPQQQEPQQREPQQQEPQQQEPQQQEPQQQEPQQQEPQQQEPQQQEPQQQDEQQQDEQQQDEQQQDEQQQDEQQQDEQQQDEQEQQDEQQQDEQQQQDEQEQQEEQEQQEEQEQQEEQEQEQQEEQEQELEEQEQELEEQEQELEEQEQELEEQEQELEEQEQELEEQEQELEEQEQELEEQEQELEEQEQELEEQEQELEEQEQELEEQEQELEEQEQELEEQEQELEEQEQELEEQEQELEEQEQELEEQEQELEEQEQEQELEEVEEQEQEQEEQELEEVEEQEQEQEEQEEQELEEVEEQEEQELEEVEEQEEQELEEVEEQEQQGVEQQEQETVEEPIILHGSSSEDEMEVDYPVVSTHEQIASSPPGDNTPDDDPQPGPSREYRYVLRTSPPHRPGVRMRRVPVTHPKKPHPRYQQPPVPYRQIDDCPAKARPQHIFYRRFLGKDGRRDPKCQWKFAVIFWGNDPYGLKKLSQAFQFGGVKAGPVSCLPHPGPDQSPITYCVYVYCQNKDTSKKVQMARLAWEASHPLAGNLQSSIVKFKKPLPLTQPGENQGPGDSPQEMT
The assay is described as follows: inhibitors of C-LANA binding to LBS DNA, dose response, biochemical, fluorescence polarization, cherry-picked samples (AID 504725).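 Further: fluorescence polarization of a labeled DNA duplex reporting LANA DNA binding; potency is for inhibitors that block LANA binding to the DNA.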 On the set-up: species or system Human gammaherpesvirus 8. For orientation: In fluorescence polarisation assays a small probe gives low polarisation when free and higher when bound to something large.

Assay [13] can be described thus: inhibitors of firefly luciferase expression or activity, dose response, H4 neuroglioma cells, luminescence (AID 1990). The class given is functional, cell-based.
Assay [14] is described as follows: Luminescence Cell-Based Dose Response HTS to Identify Inhibitors of 5'UTR Stem-Loop Driven Prion Protein mRNA Translation in H4 Neuroglioblastoma Cells. [Related pubchem assays: 1827 (Project Summary), 1813 (Primary HTS)]. The class given is functional.
Assay [15] in a line: inhibitors of SNCA 5'UTR-driven reporter translation, confirmation, H4 neuroglioma cells, luminescence (AID 1988). It counts as functional, cell-based.
Assay [16] relates to Jurkat. The assay is described as follows: antigen receptor-induced NF-kB inhibitors, dose response, Jurkat, luciferase reporter, luminescence, B- and T-cell (AID 489004).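 Further: NF-kB luciferase reporter Jurkat cells stimulated with PMA plus ionomycin.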 The conditions noted are these: Homo sapiens. It counts as functional, cell-based. In general terms: In a reporter assay the amount or activity of a reporter protein is the signal.
The nature of assay [17]: cytotoxicity in HEK-293T NF-kB-Luc cells, dose response, cytotoxicity control for B/T-cell NF-kB inhibitor project, cell-based, uHTS hits (AID 489019).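 Further: IC50 reflects cytotoxicity as loss of cell viability.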 It counts as functional.
A short description of assay [18]: HeLa cell cytotoxicity, dose response, cytotoxicity control for MgcRacGAP inhibitor project (AID 624300). It counts as functional.
For assay [19], the target named is T5, Rac GTPase-activating protein 1 (Homo sapiens, UniProt Q9H0H5).
T5 sequence (Q9H0H5 whole entry): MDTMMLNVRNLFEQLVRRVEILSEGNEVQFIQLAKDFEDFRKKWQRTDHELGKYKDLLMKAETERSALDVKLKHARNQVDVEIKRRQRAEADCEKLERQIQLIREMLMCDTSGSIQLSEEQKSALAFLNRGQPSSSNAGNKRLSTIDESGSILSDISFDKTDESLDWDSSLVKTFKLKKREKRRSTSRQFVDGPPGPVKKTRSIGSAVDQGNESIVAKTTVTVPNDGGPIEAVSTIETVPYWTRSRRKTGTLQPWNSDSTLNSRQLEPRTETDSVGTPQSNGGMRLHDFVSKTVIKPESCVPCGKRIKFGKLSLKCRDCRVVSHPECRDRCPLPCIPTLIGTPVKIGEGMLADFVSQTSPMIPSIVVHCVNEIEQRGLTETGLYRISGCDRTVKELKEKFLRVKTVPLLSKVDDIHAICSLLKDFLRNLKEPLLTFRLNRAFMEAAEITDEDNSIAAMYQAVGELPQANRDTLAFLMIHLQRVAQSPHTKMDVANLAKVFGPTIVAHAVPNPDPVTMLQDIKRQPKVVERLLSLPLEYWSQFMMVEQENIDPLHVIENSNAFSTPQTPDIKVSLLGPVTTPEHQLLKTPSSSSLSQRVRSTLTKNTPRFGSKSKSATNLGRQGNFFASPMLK
Description: MgcRacGAP GTPase-activating activity inhibitors, confirmation, biochemical, ADP Hunter fluorescence, primary and confirmatory (AID 624330). It counts as functional.

Assay [20] concerns the target Melanocortin receptor 4 (Homo sapiens, UniProt P32245). It counts as functional, cell-based.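 Further: Cell-based assay with luminescence read-out, confirmatory dose-response testing for agonist activity of biased ligands at MC4R; human U2OS cells with tagged receptor and beta-arrestin; potency of agonists that increase receptor coupling to beta-arrestin.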
For assay [21], the target named is SUMO-activating enzyme (Homo sapiens, UniProt Q9UBT2). The assay is described as follows: SUMOylation inhibitor hit validation, confirmation, SUMOylation inhibitor project, biochemical, AlphaScreen (AID 2018). The class given is functional. Background: In Alpha technology, singlet oxygen from a donor bead excites a nearby acceptor bead.
For assay [22], the system named is H9c2. Description: cells. It counts as functional, cell-based. To be noted: Rattus norvegicus, H9c2, Myocardium.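 Further: confirmatory concentration-response retest of ultra-high-throughput screening hits for modulation of myocardial damage; cell death induced by hydrogen peroxide oxidative stress; compound pretreatment for 60 min then peroxide exposure for 2 h; potency is for protecting the cells against peroxide damage rather than for killing them.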
Assay [23] concerns the target Large T antigen (Simian virus 40, UniProt P03070). The class given is functional, Betapolyomavirus macacae.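 Further: Confirmatory-stage PubChem screen for compounds that inhibit SV40 T antigen.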
The target in assay [24] is T6, Microphthalmia-associated transcription factor (Homo sapiens, UniProt O75030).
T6 sequence (O75030 whole entry): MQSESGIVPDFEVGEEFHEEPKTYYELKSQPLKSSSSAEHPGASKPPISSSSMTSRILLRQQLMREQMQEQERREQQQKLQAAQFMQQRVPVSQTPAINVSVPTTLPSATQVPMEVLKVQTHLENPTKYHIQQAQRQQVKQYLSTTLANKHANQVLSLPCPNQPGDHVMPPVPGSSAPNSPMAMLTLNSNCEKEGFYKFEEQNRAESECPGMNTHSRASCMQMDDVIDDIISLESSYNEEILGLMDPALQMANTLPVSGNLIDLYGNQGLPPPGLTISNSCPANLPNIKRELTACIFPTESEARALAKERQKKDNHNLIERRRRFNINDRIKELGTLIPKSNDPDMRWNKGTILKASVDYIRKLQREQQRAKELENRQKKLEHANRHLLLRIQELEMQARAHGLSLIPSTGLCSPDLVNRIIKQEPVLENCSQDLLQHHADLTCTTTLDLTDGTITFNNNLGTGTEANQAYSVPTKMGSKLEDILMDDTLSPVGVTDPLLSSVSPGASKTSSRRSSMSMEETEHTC
Description: TRPM1 promoter luciferase signal decrease, dose response, MITF inhibitor project, cell-based, SK-MEL-5, cherry-picked, set 3 (AID 493073).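 Further: SK-MEL-5 melanoma cells with luciferase driven by the MITF target TRPM1 promoter.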 The class given is functional.

Neurotensin receptor type 1, sequence (P30989 whole entry): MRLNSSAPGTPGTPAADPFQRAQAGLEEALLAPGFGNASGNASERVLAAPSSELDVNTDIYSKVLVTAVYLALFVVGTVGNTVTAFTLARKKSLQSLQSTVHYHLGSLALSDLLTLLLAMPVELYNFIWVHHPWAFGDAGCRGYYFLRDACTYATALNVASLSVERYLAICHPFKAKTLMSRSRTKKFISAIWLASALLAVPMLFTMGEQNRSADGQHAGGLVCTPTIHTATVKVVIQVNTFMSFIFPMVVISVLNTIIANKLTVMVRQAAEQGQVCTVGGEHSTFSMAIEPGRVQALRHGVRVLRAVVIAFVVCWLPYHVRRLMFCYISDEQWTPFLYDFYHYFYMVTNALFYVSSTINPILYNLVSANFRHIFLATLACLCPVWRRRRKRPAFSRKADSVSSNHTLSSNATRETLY
Large T antigen, sequence (P03070 whole entry): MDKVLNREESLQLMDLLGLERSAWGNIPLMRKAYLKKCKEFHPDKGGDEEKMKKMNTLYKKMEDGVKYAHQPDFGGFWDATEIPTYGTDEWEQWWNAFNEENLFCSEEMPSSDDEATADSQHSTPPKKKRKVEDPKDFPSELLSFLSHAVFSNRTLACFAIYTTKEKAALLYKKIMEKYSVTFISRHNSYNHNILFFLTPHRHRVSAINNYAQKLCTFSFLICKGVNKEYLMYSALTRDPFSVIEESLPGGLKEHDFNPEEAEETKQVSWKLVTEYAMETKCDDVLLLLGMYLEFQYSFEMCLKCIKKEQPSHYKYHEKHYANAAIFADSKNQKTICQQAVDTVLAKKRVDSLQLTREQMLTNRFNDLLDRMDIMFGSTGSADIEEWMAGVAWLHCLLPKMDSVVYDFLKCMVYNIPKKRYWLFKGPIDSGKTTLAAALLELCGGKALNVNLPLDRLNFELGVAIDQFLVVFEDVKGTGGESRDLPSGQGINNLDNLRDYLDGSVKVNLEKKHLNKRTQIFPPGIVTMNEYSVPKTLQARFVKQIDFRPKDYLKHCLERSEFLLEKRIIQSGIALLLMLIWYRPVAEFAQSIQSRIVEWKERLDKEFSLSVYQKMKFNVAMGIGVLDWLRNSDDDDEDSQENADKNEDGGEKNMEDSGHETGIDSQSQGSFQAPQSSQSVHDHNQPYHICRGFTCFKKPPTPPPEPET
Melanocortin receptor 4, sequence (P32245 whole entry): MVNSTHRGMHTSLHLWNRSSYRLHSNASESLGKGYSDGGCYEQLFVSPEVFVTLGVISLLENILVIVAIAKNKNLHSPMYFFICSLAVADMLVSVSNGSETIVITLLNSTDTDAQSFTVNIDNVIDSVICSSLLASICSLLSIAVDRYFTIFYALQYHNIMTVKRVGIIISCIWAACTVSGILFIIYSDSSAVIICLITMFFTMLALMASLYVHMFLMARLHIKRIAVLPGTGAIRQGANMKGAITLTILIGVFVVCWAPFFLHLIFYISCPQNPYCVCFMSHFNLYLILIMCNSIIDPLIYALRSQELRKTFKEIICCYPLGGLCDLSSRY

Broadly, the EC50 is the concentration giving half of the maximal effect. One may read the AC50 as the concentration giving half of the maximal activity seen. Consider `CCc1ccc2c(c1)C1(C(=O)N2)N2CCCC2C(C(=O)c2ccc3ccccc3c2)C12C(=O)Nc1ccccc12` (stereo not given), for which the CC50 in assay [1] is 16.2 µM (active). Besides, the concentration for a half-maximal effect (EC50) was 10.2 µM (active) in [2], 10.1 µM (active) in assay [3] and 9.78 µM (active) in assay [5]. The AC50 in [4] was 3.05 µM (active); in [6] it was 6.87 µM (active).

As a reminder, the IC50 is the concentration that gives 50% inhibition. Take `O=C(N/N=C/c1coc2ccccc2c1=O)c1cc(O)cc(O)c1`: the 50% inhibitory concentration (IC50) in assay [7] was 7.54 µM (active); in assay [8], > 50 µM (inactive).

With `Cc1cc2c(c(=O)n1C)C(Cc1ccccc1)C(C#N)=C(N)O2` (stereo not given), the IC50 in assay [9] is > 50 µM (inactive).

For the compound `O=C(CSc1nnc(COc2ccccc2)n1Cc1ccco1)c1ccc(F)cc1`, in [9], the IC50 was > 50 µM (inactive).

On to `O=C(O)CCn1cc(C=C2C(=O)NC(=S)NC2=O)c(-c2cc3ccccc3oc2=O)n1`, for which the IC50 was 17.8 µM (active) in [7], 6.27 µM (active) in assay [8], 3.42 µM (active) in assay [10] and 13 µM (active) in [11].

Consider `CCOC(=O)C1Nc2ccccc2C2C(O)C(O)CC12` (stereo not given), for which the AC50 in assay [12] was > 350 µM (inactive).

As for `COc1ccc(CNc2ncc(-c3ccc(F)cc3)n2C)c2ccccc12`, the EC50 in [13] was 10 µM (active); in [14], 6.58 µM (active); in assay [15] it was 1.22 µM (active). Further, the figures for the concentration for half-maximal inhibition (IC50) in [16], in assay [17] and in [19] were 1.97 µM (active), > 80 µM (inactive) and 62.6 µM (active), respectively. In addition, the CC50 in assay [18] is 100 µM (active).

Consider `Clc1ccc(C2=Nn3c(nnc3-c3cc(-c4ccccc4)n[nH]3)SC2)cc1`, for which the EC50 in [5] was 37.9 µM (inactive); in assay [20] it was > 89.2 µM (inactive).

Turning to `Nc1ccc2nc(-c3ccc(-c4nc5ccc(N)cc5[nH]4)cc3)[nH]c2c1`, the IC50 was > 100 µM (inactive) in assay [21], 5.62 µM (active) in assay [7] and > 50 µM (inactive) in assay [8].

For the compound `COc1cccc(OC)c1-c1nn2c(-c3ccco3)nnc2s1`, the IC50 in assay [9] was > 50 µM (inactive); in assay [22], > 79 µM (inactive).

Regarding `O=C1NC(=O)C(=Cc2ccc(-c3cc(Cl)ccc3[N+](=O)[O-])o2)C(=O)N1`, the IC50 is 4.58 µM (active) in assay [7], 48.3 µM (active) in assay [23] and > 50 µM (inactive) in assay [8]. Also, the AC50 in assay [24] is 17.2 µM (active).

For the compound `CC(C)c1ccc(NC(=O)c2ccc(Br)o2)cc1`, the IC50 in [9] was > 50 µM (inactive).

With `CC(C)C(OC(=O)c1cccs1)C(=O)NCc1ccc2c(c1)OCO2` (stereo not given), in assay [9], the IC50 is > 50 µM (inactive).
